The source of these data is patent US7112676B2, “Pyrimido compounds having antiproliferative activity” (Hoffmann-La Roche Inc., priority 2002, dated 2006).

One series addresses T1, KDR (Homo sapiens, UniProt P35968).
T1 construct: EEE-tag
The series is described as follows: KDR kinase HTRF assay. To be noted: 0.3 mM ATP, read-out: IC50 (μM) - Enzyme Inhibition Assays KDR. Format: biochemical. As for the experimental part:
(§1) To determine inhibition of KDR, FGFR, EGFR, and PDGFR activity, kinase assays were conducted using an HTRF (Homogeneous Time Resolved Fluorescence) assay. This assay is described in A. J. Kolb et. al., Drug Discovery Today, 1998, 3(7), p 333.
Prior to kinase reaction, recombinant EEE-tagged KDR was activated in the presence of activation buffer (50 mM HEPES, pH 7.4, 1 mM DTT, 10% glycerol, 150 mM NaCl, 0.1 mM EDTA, 26 mM MgCl2, and 4 mM ATP). The enzyme was incubated at 4° C. for 1 hour.
(§2) Kinase activity assays were performed in 96-well polypropylene plates (Falcon) with a total volume of 90 μL in each well. Each well contained 1 μM KDR substrate (Biotin-EEEEYFELVAKKKK), 1 nM activated KDR, and a test compound with one of 8 assay concentrations ranging from 100 μM to […] (1:5 serial dilution). The kinase activity assay was done in the presence of 100 mM HEPES, pH 7.4, 1 mM DTT, 0.1 mM Na2VO4, 25 mM MgCl2, 50 mM NaCl (from KDR stock solution), 1% DMSO (from compound), 0.3 mM ATP (at Km concentration) and 0.02% BSA. The reaction was incubated at 37° C. for 30 minutes. To stop the KDR reaction, 72 μL of reaction mixture was transferred into a STOP plate containing 18 μL of revelation buffer (20 mM EDTA, 50 mM HEPES, pH 7.4, 0.02% BSA, 10 nM Eu-labelled anti-pY antibody (final conc. 2 nM), and 100 nM streptavidin (final conc. 20 nM)). After mixing, 35 μL of solution was transferred into duplicate wells of a 384-well black plate (Costar), and read at 615/665 nm on a Wallac Victor 5 reader.
(§3) Compound IC50 values were determined from duplicate sets of data, and calculated by using Excel and fitting data to equation Y=[(a−b)/{1+(X/c)^d]+b, where a and b are enzyme activity in the presence of no test inhibitor compound and an infinite amount of inhibitor test compound, respectively, c is the IC50 and d is the hill constant of the compound response. The IC50 value is the concentration of test compound that reduces by 50% the enzyme activity under the test conditions described.
In general terms: Time-resolved FRET reads energy transfer from a long-lived donor to a nearby acceptor.

Another series addresses T2, FGFR.
T2 construct: fused on or other part: GST tag
In words: FGFR kinase HTRF assay. In kind it is biochemical. The settings on record: 10 μM ATP, read-out: IC50 (μM) - Enzyme Inhibition Assays FGFR. Here is the method: as §1, §2
FGFR, EGFR, and PDGFR activity assays were carried out as described above for the KDR activity assay with the following differences. GST-tagged FGFR enzyme was activated at room temperature for 1 hour in the following activation buffer: 100 mM HEPES, pH 7.4, 50 mM NaCl, 20 mM MgCl2, and 4 mM ATP. The kinase activity assay was performed with 1 μM substrate (Biotin-EEEEYFELV), 1.5 nM activated FGFR, and test compound in the presence of 100 mM HEPES, 1 mM DTT, 0.4 mM MgCl2, 0.4 mM MnCl2, 50 mM NaCl, 1% DMSO, 10 μM ATP (Km=8.5 μM for FGFR), 0.1 mM Na2VO4, and 0.02% BSA, in a total volume of 90 μL. The rest of the assay was performed in the same manner as KDR assay.
as §3

For a further series, the target named is PDGFR. In words: PDGFR kinase HTRF assay. Format: biochemical. To be noted: 2.3 μM ATP, read-out: IC50 (μM) - Enzyme Inhibition Assays PDGFR. As for the experimental part:
as §1, §2
The PDGFR kinase activity assay was performed with 1 μM substrate (Biotin-EEEEYFELV), 1.0 nM PDGFR, test compounds, 100 mM HEPES, pH 7.4, 1 mM DTT, 5 mM MgCl2, 2 mM MnCl2, 1% DMSO, 2.3 μM ATP (Km for PDGFR), 0.1 mM Na2VO4, and 0.02% BSA. The rest of the assay was performed in the same manner as the KDR assay.
as §3

T1 sequence (P35968 20-1356, species assumed): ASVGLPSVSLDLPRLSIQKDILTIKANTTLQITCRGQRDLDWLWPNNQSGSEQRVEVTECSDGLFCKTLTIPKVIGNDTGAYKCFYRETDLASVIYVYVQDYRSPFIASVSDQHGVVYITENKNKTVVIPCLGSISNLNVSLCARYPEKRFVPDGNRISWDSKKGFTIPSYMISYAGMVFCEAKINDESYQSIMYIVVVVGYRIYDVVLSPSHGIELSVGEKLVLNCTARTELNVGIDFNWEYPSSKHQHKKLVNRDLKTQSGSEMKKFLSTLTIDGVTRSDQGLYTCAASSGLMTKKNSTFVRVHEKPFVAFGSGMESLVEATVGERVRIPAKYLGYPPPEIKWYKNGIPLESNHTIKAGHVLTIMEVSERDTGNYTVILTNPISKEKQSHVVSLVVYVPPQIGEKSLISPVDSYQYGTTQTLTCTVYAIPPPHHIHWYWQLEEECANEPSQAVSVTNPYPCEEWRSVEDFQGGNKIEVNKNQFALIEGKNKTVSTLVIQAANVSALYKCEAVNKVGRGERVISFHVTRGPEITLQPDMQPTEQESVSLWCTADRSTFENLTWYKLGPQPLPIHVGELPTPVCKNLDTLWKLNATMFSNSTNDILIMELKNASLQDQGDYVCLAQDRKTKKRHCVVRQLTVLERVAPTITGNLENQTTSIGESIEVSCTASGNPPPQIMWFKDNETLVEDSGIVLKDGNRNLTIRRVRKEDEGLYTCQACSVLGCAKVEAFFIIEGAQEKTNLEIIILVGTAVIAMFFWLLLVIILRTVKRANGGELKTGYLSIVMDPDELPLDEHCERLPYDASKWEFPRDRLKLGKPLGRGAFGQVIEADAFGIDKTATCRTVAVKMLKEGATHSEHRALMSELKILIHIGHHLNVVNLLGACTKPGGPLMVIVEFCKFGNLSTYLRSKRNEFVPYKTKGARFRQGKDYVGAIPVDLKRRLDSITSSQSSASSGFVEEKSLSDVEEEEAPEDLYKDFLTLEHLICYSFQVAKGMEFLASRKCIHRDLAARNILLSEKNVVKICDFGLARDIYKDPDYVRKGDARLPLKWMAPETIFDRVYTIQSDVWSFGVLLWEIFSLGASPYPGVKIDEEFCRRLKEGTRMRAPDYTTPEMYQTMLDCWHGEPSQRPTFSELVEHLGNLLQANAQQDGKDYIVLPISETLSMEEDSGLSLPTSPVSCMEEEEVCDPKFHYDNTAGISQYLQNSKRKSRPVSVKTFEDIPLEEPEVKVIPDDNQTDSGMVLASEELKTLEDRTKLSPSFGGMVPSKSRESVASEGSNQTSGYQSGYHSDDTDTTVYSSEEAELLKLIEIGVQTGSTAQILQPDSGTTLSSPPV

For orientation: IC50 means the midpoint of a concentration-inhibition curve. In general, melting point refers to the temperature, or range, at which the solid turns liquid. `COc1ccc(N2C(=O)N(c3ccccc3)c3nc(Nc4ccccc4)ncc3C2C)cc1` (racemic) [Example 1g, (±)-3-(4-Methoxy-phenyl)-4-methyl-1-phenyl-7-phenylamino-3,4-dihydro-1H-pyrimido[4,5-d]pyrimidin-2-one]: the melting point is 222 to 234 °C. Besides, the IC50 on KDR was < 10 µM. For the same molecule, the IC50 on FGFR was < 10 µM. For the same molecule, the IC50 on PDGFR is < 10 µM.
In turn, `COc1ccc(N2C(=O)N(c3ccc(OC)cc3)C(C)c3cnc(Nc4ccccc4)nc32)cc1` (racemic) [Example 4b, (±)-1,3-Bis-(4-methoxy-phenyl)-4-methyl-7-phenylamino-3,4-dihydro-1H-pyrimido[4,5-d]pyrimidin-2-one] came in with a melting point of 228 to 234 °C. Also, the IC50 on KDR is < 10 µM. For the same molecule, on FGFR, the IC50 is < 10 µM. Besides, on PDGFR, the IC50 is < 10 µM.
As for `COc1ccc(N2C(=O)N(c3cccc(C#N)c3)c3nc(Nc4ccccc4)ncc3C2C)cc1` (racemic) [Example 5b, (±)-3-[3-(4-Methoxy-phenyl)-4-methyl-2-oxo-7-phenylamino-3,4-dihydro-2H-pyrimido[4,5-d]pyrimidin-1-yl]-benzonitrile], the melting point lay within 224 to 228 °C. For the same molecule, the half-inhibitory concentration (IC50) at KDR is < 10 µM. The IC50 on FGFR is < 10 µM. Further, the IC50 on PDGFR was < 10 µM.
The molecule `COc1ccc(N2C(=O)N(c3cccc(C(N)=O)c3)c3nc(Nc4ccccc4)ncc3C2C)cc1` (racemic) [Example 6, (±)-3-[3-(4-Methoxy-phenyl)-4-methyl-2-oxo-7-phenylamino-3,4-dihydro-2H-pyrimido[4,5-d]pyrimidin-1-yl]-benzamide] yielded a melting point of 268 to 273 °C. The IC50 at KDR was < 10 µM. For the same molecule, the IC50 at FGFR is < 10 µM. For the same molecule, the IC50 at PDGFR was < 10 µM.
In turn, `COc1ccc(N2C(=O)N(c3ccccc3)c3nc(Nc4ccccc4)ncc3C2C)c(F)c1` (racemic) [Example 8d, (±)-3-(2-Fluoro-4-methoxy-phenyl)-4-methyl-1-phenyl-7-phenylamino-3,4-dihydro-1H-pyrimido[4,5-d]pyrimidin-2-one] returned a melting point of 242 to 250 °C. For the same molecule, the IC50 on KDR is < 10 µM. Also, the IC50 on FGFR is < 10 µM. Moreover, the IC50 at PDGFR was < 10 µM.
Molecule `COc1ccc(N2C(=O)N(c3cccc(C#N)c3)c3nc(Nc4ccccc4)ncc3C2C)c(F)c1` (racemic) [Example 9b, (±)-3-[3-(2-Fluoro-4-methoxy-phenyl)-4-methyl-2-oxo-7-phenylamino-3,4-dihydro-2H-pyrimido[4,5-d]pyrimidin-1-yl]-benzonitrile] returned a melting point of 223 to 228 °C. The IC50 at KDR is < 10 µM. Besides, the IC50 at FGFR is < 10 µM. In addition, the IC50 at PDGFR was < 10 µM.
The molecule `COc1ccc(N2C(=O)N(c3cccc(C(N)=O)c3)c3nc(Nc4ccccc4)ncc3C2C)c(F)c1` (racemic) [Example 10, (±)-3-[3-(2-Fluoro-4-methoxy-phenyl)-4-methyl-2-oxo-7-phenylamino-3,4-dihydro-2H-pyrimido[4,5-d]pyrimidin-1-yl]-benzamide] yielded a melting point of 282 to 286 °C. Besides, the IC50 on KDR is < 10 µM. The IC50 at FGFR was < 10 µM. The IC50 on PDGFR is < 10 µM.
Consider `COc1ccc(N2C(=O)N(c3ccccc3)c3nc(Nc4ccccc4)ncc3[C@@H]2C)cc1` (single isomer, unassigned) [Example 3], for which the melting point was in the range of 223 to 236 °C. Besides, at KDR, the IC50 was < 10 µM. For the same molecule, the IC50 at FGFR was < 10 µM. Moreover, the IC50 on PDGFR is < 10 µM.
On to `COc1ccc(N2C(=O)N([C@H](C)CO)c3nc(Nc4ccccc4)ncc3[C@@H]2C)cc1` [Example 15b, 1-(2-Hydroxy-1-(R)-methyl-ethyl)-3-(4-methoxy-phenyl)-4-(S)-methyl-7-phenylamino-3,4-dihydro-1H-pyrimido[4,5-d]pyrimidin-2-one], for which the melting point lay within 195 to 198 °C. For the same molecule, the IC50 at KDR is < 10 µM. Also, on FGFR, the IC50 is < 10 µM. The IC50 at PDGFR was < 10 µM.
